Laboratory results published in publication PMC4497792 (RSC advances, 2015).

Columns and labels:
GLUT1 = details: cited from earlier work; for Km: read-out: Km for GLUT1
HeLa cells = details: antiproliferative IC50, HeLa and A549 cells
[1] = test system: A549 non-small cell lung carcinoma cells; experiment: Intracellular concentration / cell uptake assessment by LC-MS; assay type: cell-based, human; details: 100 μM, 4 hours, compared to aglycone NHI-2 and to each other
[2] = target: human lactate dehydrogenase hLDH5 (LDH-A4) (Homo sapiens, UniProt P00338); experiment: Enzyme inhibition assay, NADH-competition kinetics on purified hLDH5

Structure (SMILES)	Km (GLUT1) [mM]	enhanced potency compared to NHI-2 (HeLa cells)	cell uptake (intracellular concentration, in words) [1]	other results
OC[C@H]1OC(O)[C@@H](O)[C@@H](O)[C@@H]1O (stereo partly drawn) [Mannose, D-mannose]	20	–	–	reduction of affinity for GLUT1 compared to glucose (GLUT1): 13 fold
COC(=O)c1cc2c(C(F)(F)F)cc(-c3ccccc3)cc2n1O[C@H]1O[C@H](CO)[C@@H](O)[C@H](O)[C@@H]1O [Compound 2, Methyl 6-phenyl-4-(trifluoromethyl)-1-(((2R,3S,4S,5S,6R)-3,4,5-trihydroxy-6-(hydroxymethyl)tetrahydro-2H-pyran-2-yl)oxy)-1H-indole-2-carboxylate]	–	3–6 fold	significantly enhanced cell uptake	–
COC(=O)c1cc2c(C(F)(F)F)cc(-c3ccccc3)cc2n1O[C@@H]1O[C@H](CO)[C@@H](O)[C@H](O)[C@H]1NC(C)=O [Compound 4, Methyl 1-(((2S,3R,4R,5S,6R)-3-acetamido-4,5-dihydroxy-6-(hydroxymethyl)tetrahydro-2H-pyran-2-yl)oxy)-6-phenyl-4-(trifluoromethyl)-1H-indole-2-carboxylate]	–	–	–	Ki [2]: 98.4 ± 15.6 µM
OC[C@H]1OC(O)[C@H](O)[C@@H](O)[C@@H]1O (some centres unmarked) [glucose]	1.5	–	–	–
COC(=O)c1cc2c(C(F)(F)F)cc(-c3ccccc3)cc2n1O[C@@H]1O[C@H](CO)[C@H](O)[C@@H](O)[C@H]1O [Compound 3, Methyl 6-phenyl-4-(trifluoromethyl)-1-(((2S,3R,4R,5R,6R)-3,4,5-trihydroxy-6-(hydroxymethyl)tetrahydro-2H-pyran-2-yl)oxy)-1H-indole-2-carboxylate]	–	2–3 fold	slightly lower levels of cell uptake	–
